Data from article PMC5516028, “Molecular tools for GABAA receptors: High affinity ligands for β1-containing subtypes” (Scientific Reports, 2017).

Experiments:
Format in all cases: cell-based
α1β1 GABAA receptors = biological target: T1, α1β1 GABAA receptors (Rattus norvegicus, UniProt P15431+P62813); test: Two electrode voltage clamp in Xenopus laevis oocytes, α1β1; conditions: α1β1; for EC50: co-applied with GABA EC3-5, read-out: EC50
T1 construct: expressed in transfected cells; host or cells: Xenopus laevis oocytes, mRNA injected
Text: (§1) cDNA’s of rat GABAA receptor subunits α1, α4, β1, β2, β3 and γ2S were cloned as described. cDNAs of the rat subunits α2, α3 and α5 were gifts from P. Malherbe, that of α6 and γ1 were gifts of P. Seeburg and that of δ was a gift of C. Czajkowski. The mutants were constructed using the Q5 Site-Directed Mutagenesis Kit (New England Biolabs) following manufacturer’s instruction. We used the wild-type rat β3-pCI vector as template and the primers […] and […] resulting in a substitution of amino acid N41 (AAC) to R (AGG). We used the wild-type rat β1-pCI vector as template and the primers […] and […] resulting in a substitution of amino acid R41 (CGG) to N (AAC). The mutated subunits were confirmed by sequencing.
(§2) In vitro transcription of mRNA was based on the cDNA expression vectors encoding for rat GABAA receptor subunits α1–6, β1-3, γ1,2, δ and the two β mutants (β1R41N and β3N41R)[40]. After linearizing the cDNA vectors with appropriate restriction endonucleases, the cDNA was purified and concentrated with the DNA Clean and Contentrator ^TM Kit (Zymoresearch, Catalog No. D4005). Capped transcripts of the purified cDNA were produced using the mMESSAGE mMACHINE® T7 transcription kit (Ambion, TX, USA) and polyadenylated using the Ambion PolyA tailing kit (Ambion). After transcription and polyadenylation the RNA was purified with the MEGAclear ^TM Kit (Ambion, Catalog No. AM1908). The final RNA concentration was measured on NanoDrop® ND-1000 and finally diluted and stored in diethylpyrocarbonate-treated water at −80 °C. For the microinjection, the RNA of αβ receptor combinations was mixed at 1:1 ratio (which leads to αβ receptors that consist of predominantly 3 beta and 2 alpha subunits[27]), for αkβlγm (k = 1–3, l = 1, 3, m = 1, 2) receptors at 1:1:5 ratio, for αkβ3γ2 (k = 4–6) and αkβlδ (k = 1, 4 and 6, l = 1, 3) receptor combinations at 3:1:5 ratio.
(§3) Mature female Xenopus laevis (Nasco, WI) were anesthetized in a bath of ice-cold 0.17% Tricain (Ethyl-m-aminobenzoate, Sigma, MO) before decapitation in full accordance with all rules of the Austrian animal protection law (see http://www.ris.bka.gv.at/Dokumente/BgblAuth/BGBLA_2012_I_114/BGBLA_2012_I_114.pdf) and the Austrian animal experiment by-laws (see https://www.ris.bka.gv.at/Dokumente/BgblAuth/BGBLA_2012_II_522/BGBLA_2012_II_522.pdf) which implement the European Directive 2010/63/EU (see http://eur-lex.europa.eu/LexUriServ/LexUriServ.do?uri=OJ:L:2010:276:0033:0079:en:PDF) into the Austrian law (all information accessed on July 27, 2016). The frog’s ovaries were transferred to ND96 medium (96 mM NaCl, 2 mM KCl, 1 mM MgCl2, 5 mM HEPES; pH 7.5). Stage 5–6 oocytes with the follicle cell layer around them were roughly dissected with forceps into packages of 10–15 cells and washed in Ca^2+-free ND96 medium. Cells were then digested with collagenase (type IA, Sigma, NO, 1 mg/mL ND96) at 18 °C shaking at 30 rpm for 30–60 minutes and gently defolliculated with the aid of a glass pipette with appropriate tip diameter and a platinum loop. Defolliculated cells were stored at 18 °C for at least 6 hours in ND96 solution containing penicillin G (10000 IU/100 mL) and streptomycin (10 mg/100 mL) in order to preselect and exclude damaged cells from further treatment. Healthy defolliculated oocytes were injected with an aqueous solution of mRNA. A total of 4.5 ng of mRNA per oocyte was injected with a Nanoject II (Drummond). After injection of mRNA, oocytes were incubated at 18 °C (ND96 + antibiotic) for 2–3 days for αβ receptors and for 3–4 days for αβγ or αβδ receptors before recording. When cells were measured at later time points, oocytes were stored at +4 °C instead of 18 °C.
(§4) For electrophysiological recordings, oocytes were placed on a nylon-grid in a bath of Ca^2+-containing NDE solution medium [96 mM NaCl, 5 mM HEPES-NaOH (pH 7.5), 2 mM KCl, 1 mM MgCl2, 1.8 mM CaCl2].

α1β3 GABAA receptors = biological target: T2, α1β3 GABAA receptors (Rattus norvegicus, UniProt P62813+P63079); test: Two electrode voltage clamp in Xenopus laevis oocytes, α1β3; conditions: for activity at 0.1 µM: 100 nM
T2 construct: expressed in transfected cells; host or cells: Xenopus laevis oocytes, mRNA injected
Text: as §1, §2, §3, §4

α1β1R41N GABAA receptors = biological target: T3, α1β1R41N GABAA receptors (Rattus norvegicus, UniProt P15431+P62813, R66N); test: Two electrode voltage clamp in Xenopus laevis oocytes, mutant α1β1R41N; conditions: read-out: % of control current at EC3-5; for current as % of control at 0.1 µM: 100nM; for current as % of control at 0.3 µM: 300nM
T3 construct: expressed in transfected cells; host or cells: Xenopus laevis oocytes, mRNA injected
Text: as §1, §2, §3, §4

α1β2 GABAA receptors = biological target: T4, α1β2 GABAA receptors (Rattus norvegicus, UniProt P62813+P63138); test: Two electrode voltage clamp in Xenopus laevis oocytes, α1β2
T4 construct: expressed in transfected cells; host or cells: Xenopus laevis oocytes, mRNA injected
Text: as §1, §2, §3, §4

α1β3N41R GABAA receptors = biological target: T5, α1β3N41R GABAA receptors (Rattus norvegicus, UniProt P62813+P63079, N66R); test: Two electrode voltage clamp in Xenopus laevis oocytes, mutant α1β3N41R; conditions: co-applied with GABA EC3-5, read-out: EC50 values for the mutated receptors
T5 construct: expressed in transfected cells; host or cells: Xenopus laevis oocytes, mRNA injected
Text: as §1, §2, §3, §4

[1] = read-out: efficacy, % of control current (GABA EC3-5 = 100%), α1β3
[2] = read-out: efficacy, % of control current (GABA EC3-5 = 100%), α1β2

T1 sequence (P62813 28-455): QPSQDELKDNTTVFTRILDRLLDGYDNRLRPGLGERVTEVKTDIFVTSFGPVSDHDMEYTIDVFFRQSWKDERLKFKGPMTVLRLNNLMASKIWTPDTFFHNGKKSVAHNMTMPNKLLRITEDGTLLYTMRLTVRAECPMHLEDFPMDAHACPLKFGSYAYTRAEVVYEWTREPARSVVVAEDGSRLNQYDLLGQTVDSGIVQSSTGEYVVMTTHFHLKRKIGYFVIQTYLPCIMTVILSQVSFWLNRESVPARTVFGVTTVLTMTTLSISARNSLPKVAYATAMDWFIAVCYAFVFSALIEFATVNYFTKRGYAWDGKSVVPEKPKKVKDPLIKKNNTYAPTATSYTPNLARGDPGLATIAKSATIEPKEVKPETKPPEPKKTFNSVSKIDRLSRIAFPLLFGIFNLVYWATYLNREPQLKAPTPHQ
T1 sequence (P15431 26-474): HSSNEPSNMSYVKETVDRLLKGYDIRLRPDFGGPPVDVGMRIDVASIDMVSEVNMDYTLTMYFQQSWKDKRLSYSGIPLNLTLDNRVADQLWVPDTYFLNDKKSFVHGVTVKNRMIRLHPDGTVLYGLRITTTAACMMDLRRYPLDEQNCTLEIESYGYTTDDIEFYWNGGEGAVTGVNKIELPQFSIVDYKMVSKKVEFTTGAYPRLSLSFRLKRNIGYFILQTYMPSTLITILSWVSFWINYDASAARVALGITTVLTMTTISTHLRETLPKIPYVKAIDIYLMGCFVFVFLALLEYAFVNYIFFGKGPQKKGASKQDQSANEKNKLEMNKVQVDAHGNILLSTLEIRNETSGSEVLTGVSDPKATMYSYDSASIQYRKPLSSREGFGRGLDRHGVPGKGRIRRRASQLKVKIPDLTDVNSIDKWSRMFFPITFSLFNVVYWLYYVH
T4 sequence (P62813 28-455): as the sequence (P62813 28-455) above
T4 sequence (P63138 25-474 limits assumed): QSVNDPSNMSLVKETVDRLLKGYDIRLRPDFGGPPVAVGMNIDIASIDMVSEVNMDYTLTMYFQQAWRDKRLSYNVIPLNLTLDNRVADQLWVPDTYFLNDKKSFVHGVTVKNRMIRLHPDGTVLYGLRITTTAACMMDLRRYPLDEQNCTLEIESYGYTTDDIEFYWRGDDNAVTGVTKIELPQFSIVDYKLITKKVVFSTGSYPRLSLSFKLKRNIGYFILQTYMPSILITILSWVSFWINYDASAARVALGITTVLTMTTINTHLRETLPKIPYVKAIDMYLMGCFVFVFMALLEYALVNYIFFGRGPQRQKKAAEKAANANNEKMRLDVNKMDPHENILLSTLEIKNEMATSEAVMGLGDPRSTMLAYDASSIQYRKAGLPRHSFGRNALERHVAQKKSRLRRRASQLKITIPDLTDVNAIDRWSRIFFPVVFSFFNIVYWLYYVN
T2 sequence (P62813 28-455): as the sequence (P62813 28-455) above
T2 sequence (P63079 26-473): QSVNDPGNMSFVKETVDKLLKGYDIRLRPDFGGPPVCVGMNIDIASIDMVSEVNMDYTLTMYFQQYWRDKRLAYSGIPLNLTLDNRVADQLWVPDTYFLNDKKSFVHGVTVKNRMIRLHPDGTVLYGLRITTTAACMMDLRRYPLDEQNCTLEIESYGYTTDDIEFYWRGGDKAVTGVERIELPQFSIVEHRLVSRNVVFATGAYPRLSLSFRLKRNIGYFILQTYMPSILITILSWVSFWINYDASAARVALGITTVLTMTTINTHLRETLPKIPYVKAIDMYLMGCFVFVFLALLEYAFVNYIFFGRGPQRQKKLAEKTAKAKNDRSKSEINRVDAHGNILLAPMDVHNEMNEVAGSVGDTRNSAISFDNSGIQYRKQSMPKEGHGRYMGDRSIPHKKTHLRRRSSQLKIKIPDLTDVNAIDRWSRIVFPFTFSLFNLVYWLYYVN
T3 sequence (P62813 28-455): as the sequence (P62813 28-455) above
T3 sequence (P15431 26-474 R66N): as the sequence (P15431 26-474) above, with R41N counted along it
T5 sequence (P62813 28-455): as the sequence (P62813 28-455) above
T5 sequence (P63079 26-473 N66R): as the sequence (P63079 26-473) above, with N41R counted along it

Hill slope (nH) (α1β1 GABAA receptors)	EC50 (α1β1 GABAA receptors) [nM]	activity at 0.1 µM (α1β3 GABAA receptors; [1]) [%]	current as % of control at 0.1 µM (α1β1R41N GABAA receptors) [%]	current as % of control at 0.3 µM (α1β1R41N GABAA receptors) [%]	current as % of control at 1 µM (α1β1R41N GABAA receptors) [%]	current as % of control at 3 µM (α1β1R41N GABAA receptors) [%]	current as % of control at 10 µM (α1β1R41N GABAA receptors) [%]	current as % of control at 30 µM (α1β1R41N GABAA receptors) [%]	activity at 1 µM (α1β2 GABAA receptors; [2]) [%]	activity at 30 µM (α1β2 GABAA receptors; [2]) [%]	EC50 (α1β3N41R GABAA receptors) [nM]	Compound	other results
1.0± 0.5	710	126 ± 11.5	95 ± 20	85 ± 25	100 ± 30	120 ± 30	155 ± 40	160 ± 40	179 ± 8.3	651 ± 148	2470	COc1ccc2[nH]cc3c(=O)n(-c4ccc(C)cc4)nc-3c2c1 [Compound 5, 8-Methoxy-2-(4-methylphenyl)-2,5-dihydro-3H-pyrazolo[4,3-c]quinolin-3-one]	activity at 0.01 µM (α1β1 GABAA receptors; read-out: efficacy, % of control current (GABA EC3-5 = 100%), 10 nM): 123%; activity at 10 µM (α1β1 GABAA receptors; read-out: efficacy, % of control current (GABA EC3-5 = 100%), 10 µM): 732 ± 141%; activity at 30 µM (α1β1 GABAA receptors; read-out: efficacy, % of control current (GABA EC3-5 = 100%), 30 µM): 637 ± 114%; activity at 0.01 µM (α1β3 GABAA receptors; read-out: efficacy, % of control current (GABA EC3-5 = 100%), α1β3, 10 nM): 111 ± 5.7%; activity at 0.03 µM (α1β3 GABAA receptors; read-out: efficacy, % of control current (GABA EC3-5 = 100%), α1β3, 30 nM): 115 ± 8.1%; activity at 30 µM (α1β3 GABAA receptors; read-out: efficacy, % of control current (GABA EC3-5 = 100%), α1β3, 30 µM): 623 ± 114%; EC50 (α1β3 GABAA receptors; α1β3, co-applied with GABA EC3-5, read-out: EC50): 3490 nM; EC50 (α1β2 GABAA receptors): 3740 nM; activity at 0.003 µM (α1β2 GABAA receptors; read-out: efficacy, % of control current (GABA EC3-5 = 100%), α1β2, 3 nM): 100%; Hill slope (nH) (α1β2 GABAA receptors; α1β2): 2.8±1.7
1.3±0.2	650	95 ± 5	75 ± 1	90 ± 10	90 ± 15	90 ± 20	70 ± 10	115 ± 1	97.5 ± 9.5	105 ± 8.3	1870	COc1ccc2[nH]cc3c(=O)n(-c4ccc(N)cc4)nc-3c2c1 [Compound 6, 2-(4-Aminophenyl)-8-methoxy-2,5-dihydro-3H-pyrazolo[4,3-c]quinolin-3-one]	activity at 0.03 µM (α1β1 GABAA receptors; read-out: efficacy, % of control current (GABA EC3-5 = 100%), 30 nM): 100%; activity at 0.3 µM (α1β1 GABAA receptors; read-out: efficacy, % of control current (GABA EC3-5 = 100%), 300 nM): 153 ± 9.5%; activity at 0.003 µM (α1β3 GABAA receptors; read-out: efficacy, % of control current (GABA EC3-5 = 100%), α1β3, 3 nM): 100 ± 1.9%; activity at 1 µM (α1β3 GABAA receptors; read-out: efficacy, % of control current (GABA EC3-5 = 100%), α1β3, 1 µM): 97.5 ± 0.5%; activity at 0.03 µM (α1β2 GABAA receptors; read-out: efficacy, % of control current (GABA EC3-5 = 100%), α1β2, 30 nM): 98 ± 3%; activity at 0.1 µM (α1β2 GABAA receptors; read-out: efficacy, % of control current (GABA EC3-5 = 100%), α1β2, 100 nM): 99.5 ± 5.5%; activity at 10 µM (α1β2 GABAA receptors; read-out: efficacy, % of control current (GABA EC3-5 = 100%), α1β2, 10 µM): 118 ± 9%
